Reference: patent US9328118B2, “Nitrogen-containing bicyclic aromatic heterocyclic compound” (ASTELLAS PHARMA INC., priority 2012, dated 2016)
Where a name gives a salt, the structure may show the parent alone. Read-outs that look alike come from different tables or passages of the source.

What was measured:
human cathepsin S = human cathepsin S (Homo sapiens (Human), UniProt P25774); assay: In vitro human cathepsin S inhibitory activity (VVR-AMC fluorescence); type: biochemical; settings: human cathepsin S enzyme, substrate VVR-AMC 40 μM, pH 4.5, 37° C.; read-out: IC50 value of the human cathepsin S inhibitory activity (Data 1)
Sequence of human cathepsin S (P25774 115-331): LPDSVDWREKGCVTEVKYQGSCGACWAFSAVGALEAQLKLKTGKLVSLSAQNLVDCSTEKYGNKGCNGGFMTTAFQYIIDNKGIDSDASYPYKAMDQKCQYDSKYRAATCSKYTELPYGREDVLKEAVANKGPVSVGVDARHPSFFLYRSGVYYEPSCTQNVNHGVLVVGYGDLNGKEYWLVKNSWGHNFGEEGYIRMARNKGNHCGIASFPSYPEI
Experimental: Test Example 1 Measurement of a In Vitro Human Cathepsin S Inhibitory Activity
5 μL of a human cathepsin S enzyme (R&D1183-CY-010) was added to a 96-well plate so as to be 20 ng/well. […] A reaction rate at the time of not adding an enzyme in which the test compound was not added and a reaction rate at the time of adding an enzyme in which the test compound was not added were set to 100% inhibition and 0% inhibition, respectively, then, an inhibition rate at each concentration was determined, and IC50 values were calculated by a linear regression method. In the Table, Ex represents Example compound No., and Data 1 represents an IC50 value (nM) of the human cathepsin S inhibitory activity.

[1] = test system: MHC class II expression in B220 positive B cells of mouse spleen cells; assay: In vitro MHC class II expression inhibitory effect using mouse spleen cells (LPS-stimulated B cells, flow cytometry); type: cell-based, C57BL/6 mice; settings: B-cell, read-out: IC50 value of MHC class II expression inhibition (Data 2)
Experimental: Test Example 2 Evaluation of In Vitro MHC Class II Expression Inhibitory Effect Using Mouse Spleen Cells (Cell Evaluation System)
In antigen-presenting cells, the inhibition of cathepsin S inhibits the expression of MHC class II molecules. […] For an increased expression of MI-IC class II in B cells, the inhibitory effect of the compound represented by formula (I) was examined.
First, spleen cells collected from C57BL/6 mice were seeded in a 96-well plate so as to be a 1×10^5 cells/well, then, 5-fold dilution of 10 mM DMSO solution of the test compound was serially performed with RPMI 1640 medium (including 10% fetal bovine serum (FCS), 5×10^−5 M 2-mercaptoethanol, 50 IU/mL penicillin and 50 μg/mL streptomycin) nine times such that the final concentration becomes 0.026 nM to 10 μM, and the resultant products were added thereto (the final DMSO concentration was 0.1%). At the same time, LPS (Sigma L4005) was added to the wells such that the final concentration becomes 2 μg/mL, and culture was performed at 37° C. for 48 hours in 5% CO2. After culturing, the cells were stained at 4° C. for 20 minutes with PE-labeled streptavidin (BD BIOSCIENCE 554061) and biotin-labeled YAe antibody (EBIOSCIENCE 13-5741-85) together with FITC-labeled anti-mouse B220 antibody (BD BIOSCIENCE 553088), and an expression level (fluorescence intensity of YAe-biotin/streptavidin-PE) of MHC class II to which Ea peptide in B220 positive B cells was bonded was measured using a flow cytometry system (Guava EasyCyte Plus System, manufactured by Millipore Corporation). A value at the time of unstimulation of LPS in which the test compound was not added and a value at the time of stimulation of LPS in which the test compound was not added were set to 100% inhibition and 0% inhibition, respectively, then, an inhibition rate at each concentration was determined, and IC50 values were calculated by a linear regression method. In the Table, Ex represents Example compound No., and Data 2 represents an IC50 value (nM).

[2] = test system: OVA specific IgG antibody titer; assay: Antibody production inhibitory effect in mouse OVA-induced antibody production model; type: in vivo, BALB/c male mice
Experimental: Test Example 4 Evaluation of Antibody Production Inhibitory Effect in Mouse OVA-Induced Antibody Production Model
Evaluation of an antibody production inhibitory effect in vivo was performed.
The BALB/c male mice were sensitized by intraperitoneal administration of 200 μL of an emulsion consisting of 100 μg of ovalbumin (OVA) (SIGMA A5503) and 100 μL of a complete Freund's adjuvant (CFA) (DIFCO 231131) (Day 0), and a week after that, the mice were sensitized by intraperitoneal administration of 200 μL of an emulsion consisting of 50 μg of OVA and 100 μL of an incomplete Freund's adjuvant (IFA) (DIFCO 263910) (Day 7). The test compound dissolved in a vehicle (30% propylene glycol solvent (propylene glycol:HCO40:Tween 80=4:2:1)/HCl (2 equivalents with respect to the test compound)/water) was orally administered (dose: 0.3 mg/kg, 1 mg/kg, or 3 mg/kg) at 10 mL/kg/day from Day 0 to Day 14, and an OVA specific IgG antibody titer in blood plasma at Day 14 was evaluated. Measurement of antibody titer was carried out using a blood plasma sample which was diluted 40,000 times by an ELISA method, and the antibody titer was represented as a ratio with respect to control blood plasma. An antibody titer of a mouse to which the vehicle was orally administered at 10 mL/kg/day from Day 0 to Day 14 was set to 0% inhibition, an antibody titer of a normal mouse to which the vehicle was orally administered at 10 mL/kg/day from Day 0 to Day 14 and which was not sensitized with OVA was set to 100% inhibition, and the inhibition rate at the time of the test compound administration was calculated.

[3] = test system: MHC class II expression in peripheral blood B cells; assay: Ex vivo MHC class II expression inhibitory effect using mouse peripheral blood after oral administration; type: in vivo, C57BL/6 mice; settings: blood collected after 3 hours, LPS 15 hours
Experimental: Test Example 3 Evaluation of Ex Vivo MHC Class II Expression Inhibitory Effect Using Mouse Peripheral Blood
The expression inhibitory effect of MHC class II molecules was evaluated in an ex vivo system.
The test compound was orally administered into C57BL/6mice, and the inhibitory effect with respect to the increased expression of MHC class II in B cells in peripheral blood after oral administration was examined. That is, 10 mL/kg of the test compound dissolved in a vehicle (30% propylene glycol solvent (propylene glycol:cured castor oil (HCO40):Tween 80=4:2:1)/HCl (2 equivalents with respect to the test compound)/water) was orally administered (dose: 0.1 mg/kg, 0.3 mg/kg, 1 mg/kg, or 3 mg/kg) to a C57BL/6mice, and the peripheral blood was collected after 3 hours. 10 μL of RPMI 1640 medium (including 5×10^−5 M of 2-mercaptoethanol, 50 IU/mL of penicillin, and 50 μg/mL of streptomycin) or 10 μL of LPS adjusted with the medium such that the final concentration becomes 100 μg/mL was added to 90 μL of the peripheral blood, and culture was performed at 37° C. for 15 hours in 5% CO2. After culturing, the cells were stained at 4° C. for 30 minutes with FITC-labeled anti-mouse I-A/I-E antibody (BD BIOSCIENCE 553623) and PE-labeled B220 antibody (BD BIOSCIENCE 553090), and hemolysis and fixation were performed at 37° C. for 10 minutes using a buffer (BD BIOSCIENCE Phosflow Lyse/Fix Buffer 558049). After washing, using a flow cytometry system (FACSCanto II, manufactured by BD BIOSCIENCE), an expression level of MHC class II on a B220 positive B cell surface was measured by using a fluorescence intensity of FITC (hereinafter, referred to as MFI) as an indicator. The difference between a MFI at the time of stimulation of LPS and a MFI at the time of unstimulation of LPS was set to a ΔMFI, a ΔMFI of a mouse in which 10 mL/kg of only vehicle was administered was set to 1, and the inhibition rate of ΔMFI by the test compound administration was calculated.

SLE spontaneous model = assay: SLE onset inhibitory effect in spontaneous model using NZB/W F1 mouse; type: in vivo, NZB/W F1 female mice; settings: oral 0.3 mg/kg once a day from 20 weeks old, at 41 weeks old
Experimental: NZB/W F1 mice are used as a model of SLE that spontaneously develops a condition close to humans ([…] et al, Proceedings of the university otago medical school (New Zealand), 1961, Vol. 39, p. 3; Advances in Immunology, 1985, Vol. 37, p. 269-390; Perry et al, Journal of Biomedicine and Biotechnology, 2011, Article ID 271694, Review Article). […] At this time, an individual having greater than 100 mg/dL of urine protein was excluded. […] Furthermore, a pathology evaluation of kidney tissue in the above Test 5 was performed. […] In accordance with histological classification of lupus nephritis by WHO, a histopathological image was classified into Class I (normal glomerulus), Class II (mesangium lesion), Class III (focal segmental glomerulonephritis), Class IV (diffuse glomerulonephritis), and Class VI (progressive sclerosing lupus nephritis).

[4] = C57BL/6 spleen cells, LPS 2 μg/mL, 48 hours, B220 positive B cells
[5] = oral 1 mg/kg daily Day 0 to Day 14, titer at Day 14

Which results are given for `Cl.Cn1ccc2c(-c3ccc(OCCC4CCNCC4)c(C(F)(F)F)c3)nc(C#N)nc21` [Example 2, 7-methyl-4-{4-[2-(piperidin-4-yl)ethoxy]-3-(trifluoromethyl)phenyl}-7H-pyrrolo[2,3-d]pyrimidine-2-carbonitrile monohydrochloride]?
IC50 (human cathepsin S): 2.3 nM; IC50 [1, 4]: 1.2 nM; inhibition of OVA specific IgG antibody titer in blood plasma [2, 5]: 61±10%

With `CN1CCC[C@H]1C(=O)N1CCC(CCOc2ccc(-c3nc(C#N)nc4c3ccn4CC3CCCO3)cc2C(F)(F)F)CC1` (stereo partly drawn) [Example 15, 4-[4-{2-[1-(1-methyl-L-prolyl)piperidin-4-yl]ethoxy}-3-(trifluoromethyl)phenyl]-7-(tetrahydrofuran-2-ylmethyl)-7H-pyrrolo[2,3-d]pyrimidine-2-carbonitrile monohydrochloride] as the compound, how does the IC50 (human cathepsin S) read?
The IC50 was 3.4 nM.

And the IC50 [1, 4]?
The IC50 was 2.1 nM.

What does the source list for `Cl.Cn1cnc2c(-c3cnc(OCCC4CCNCC4)c(C(F)(F)F)c3)nc(C#N)nc21` [Example 28, 9-methyl-6-{6-[2-(piperidin-4-yl)ethoxy]-5-(trifluoromethyl)pyridin-3-yl}-9H-purine-2-carbonitrile monohydrochloride]?
inhibition rate of ΔMFI (increased expression of MHC class II in peripheral blood B cells) ([3]; oral 0.3 mg/kg): 40±1.4%; inhibition of OVA specific IgG antibody titer in blood plasma [2, 5]: 83±2%

Which results are given for `CCN1CCC(CCOc2ncc(-c3nc(C#N)nc4c3ncn4C)cc2C(F)(F)F)CC1` [Example 39, 6-{6-[2-(1-ethylpiperidin-4-yl)ethoxy]-5-(trifluoromethyl)pyridin-3-yl}-9-methyl-9H-purine-2-carbonitrile]?
IC50 [1, 4]: 0.61 nM; inhibition rate of ΔMFI (increased expression of MHC class II in peripheral blood B cells) ([3]; oral 1 mg/kg): 61±1.2%; inhibition of OVA specific IgG antibody titer in blood plasma ([2]; oral 0.3 mg/kg daily Day 0 to Day 14, titer at Day 14): 74±8%; average anti-dsDNA IgG antibody titer (SLE spontaneous model; 10 cases, ELISA): 9,263±1,700 mU/mL; urine protein (SLE spontaneous model; all individuals of 10 cases): ≤ 100 mg/dL

What does the source list for `CN1CCC(NC(=O)Cn2ccc3c(-c4ccc(OCCC5CCOCC5)c(C(F)(F)F)c4)nc(C#N)nc32)CC1` [Example 47]?
IC50 (human cathepsin S): 2.1 nM; IC50 ([1]; 48 h): 2 nM

For `CN1CCC[C@H]1C(=O)N1CCC(CCOc2ccc(-c3nc(C#N)nc4c3ncn4CC3CCOC3)cc2C(F)(F)F)CC1` (stereo partly drawn) [Example 77], which IC50 (human cathepsin S) is on record?
The IC50 was 2.7 nM.

And the IC50 [1, 4]?
Its IC50 is 1.5 nM.

`CN1CCC[C@@H]1C(=O)N1CC[C@@H](OCCOc2ncc(-c3nc(C#N)nc4c3ccn4C)cc2C(F)(F)F)C1` [Example 158] was tested. Which IC50 [1, 4] did it give?
The IC50 was 0.62 nM.

And the “inhibition rate of ΔMFI (increased expression of MHC class II in peripheral blood B cells)” value ([3]; oral 0.3 mg/kg)?
Its value is 59±1.5%.
